# Laboratory results as given in patent publication US5985302A, “Method for deactivating a contaminant” (priority 1998, dated 1999).
# Where two headings read alike, the source gives them in different places.
# Legend:
# [1] = system: Salmonella Typhimurium TA 98 strain; experiment: Mutagenic activity (revertant colonies) of DNA intercalators treated with calcium hypochlorite; assay type: cell-based; settings: for No. colonies of revertant organisms: drug 10 ng/ml
# Method: Solutions of DNA intercalators (doxorubicin, daunorubicin and mitoxantrone)in concentrations of 10 ng/ml D5W were applied in 5 ml quantities to separate petri dishes. Two different concentrations of calcium hypochlorite, 40 g/l and 423 g/l, were applied in 1 ml. volumes separately to the anticancer drug solutions in each petri dish for a period of one minute. After thorough mixing and neutralization of the pH to 7.4 using HCl, 1 ml of each petri dish solution was applied to 35 mm petri dishes containing cultures of Salmonella Typhimurium TA 98 strain. The petri dishes containing bacteria plus overlaid mixtures of calcium hypochlorite/anticancer drug and control plates with bacteria alone were then incubated at 37° C. for 24 hours.
# [2] = system: HIV-infected CD4+ human cell line (H9/IIIB); experiment: HIV inactivation by dilute calcium hypochlorite; assay type: cell-based, HIV; human cells
# Method: The ability of dilute calcium hypochlorite to inactivate HIV was tested against an HIV-infected CD4+ human cell line (H9/IIIB).
# H9/IIIB cells (10^6 cells/ml of complete culture medium, RPMI in 10% fetal calf serum [FCS]) were exposed to an aqueous solution containing 4% by weight of calcium hypochlorite for 15 minutes; the volumetric ratio of culture medium to calcium hypochlorite solution was 1:1, or a 50% dilution of a 4% dilute calcium hypochlorite solution in culture medium containing 10% serum. The cells were subsequently washed three times with 10% FCS RPMI and plated in fresh medium and allowed to incubate at 37° C. for three days, to allow any residual live virus and/or virus-infected cells to develop after the brief exposure to the dilute calcium hypochlorite solution. The cells were again pelleted and exposed to lytic CD4+ human cell line (MOT) as a target for any viable virus. The target MOT cells will lyse when infected with HIV. These cells were then allowed to incubate an additional four days. Next, the cells were incubated with human anti-HIV antibody (prepared in accordance the procedures described in Lake DA, Sugano T, Matsumoto Y, et al: "A Hybridoma Producing Monoclonal Antibody Specific for Glycoprotein 120 kDa of Human Immunodeficiency Virus (HIV-1), Life Sciences 45:iii-x, 1989.) for one hour, and then washed and incubated with fluorescent labeled goat anti-human IgG for one hour. The method for HIV detection by formaldehyde fixation and flow cytometry was in accordance with the method described in Lifson JD, Sasaki DT, Engleman EG: "Utility of Formaldehyde Fixation for Flow Cytometry and Inactivation of the AIDS Associated Retrovirus", J Immunological Methods 86:143-149, 1986.
# As a positive control, the above procedure was followed with HIV-infected H9/IIIB cells exposed only to culture medium rather than to culture medium and calcium hypochlorite. As a negative control, the above procedure was followed with uninfected H9 cells exposed to an aqueous solution containing 4% by weight of calcium hypochlorite.
# [3] = Deactivation and decolorization of anticancer drugs by hypochlorite; settings: calcium or sodium hypochlorite
# Description: In accordance with the invention, HIV infected blood, or any of a number of active anticancer drugs, can be inactivated by applying thereto an aqueous solution containing 4-40% by weight of calcium or sodium hypochlorite. HIV infected blood, as well as any anticancer agent which can undergo oxidative or alkaline degradation can be deactivated in accordance with the method of the invention. Among the anticancer agents which can be effectively deactivated are the following:
# In addition to chemically deactivating the anti-cancer drugs, the method of the invention is also effective to decolorize those, e.g., the anthracyclines, doxorubicin and daunorubicin, which are naturally red in color, and the alkylating agent mitomycin C, which is naturally purple in color, which stain fabrics which they contact. The method of the invention renders the naturally colored anticancer drugs colorless, thus preventing permanent damage to clothes or other materials which come in contact with the drugs.
# It has also been determined that HIV infected blood and most anticancer drugs can be deactivated by application of a solution of calcium or sodium hypochlorite in water at a concentration of 4% by weight.
# [4] = assay type: physicochemical; settings: for Concentration by fluorescence (chromophore recovery): 10 ng on column
# Method: Treatment of the drugs with calcium hypochlorite was carried out as described in Example 1. One ml aliquots of doxorubicin, daunorubicin and mitoxantrone, separately, were taken from the petri dishes after calcium hypochlorite exposure at two different concentrations for a period of one minute. Ten (10) ng of each of the anticancer drug (based on the final concentration resulting from the addition of calcium hypochlorite to the separate petri dishes containing each anticancer agent) was added to a high performance liquid chromatography column and standard HPLC assays were carried out. A reverse phase C-18 bonded phase HPLC procedure was used. The mobile phase consisted of 30:70 CH3 CN:ammonium acetate at a flow rate of 2 ml/min., using a Varian model 5020 HPLC unit. The anticancer drugs were detected using excitation at 480 nm and emission at 550 nm with a Schoeffel model FS 970 fluoroescence detector.
# [5] = Towlette swabs for work surfaces contaminated by doxorubicin; settings: 5% impregnated towlette; stainless steel surface
# Description: The Experimental Materials used are as described above in Example 8. A first fresh, dry test swab or towlette is impregnated with a 5.25% by weight aqueous solution of sodium hypochlorite by applying 5 (five) ml. of the sodium hypochlorite solution to the test swab. A second fresh, dry test swab or towlette is impregnated with a 5% by weight aqueous solution of sodium thiosulfate by applying 5 (five) ml. of the sodium thiosulfate solution to the test swab.
# Doxorubicin is placed on a stainless steel work surface, which should cause a red stain to appear.
# The sodium thiosulfate impregnated towlette is then wiped, or swabbed, over the work surface containing the chemically inactivated doxorubicin spill.
# [6] = system: HIV infected cells (H9/IIIB); experiment: Towlette swabs for work surfaces contaminated by HIV infected cells; parameters: species or system HIV; human cells; settings: 5% impregnated towlette; stainless steel surface
# Description: Test Swabs: 17×23 cm nylon-reinforced 4 ply, #34770, each weighing approximately 2.6 gram Terri® Wipers, manufactured by Kimberly Clark, Neenah, Wis.
# Bleach: 4% by weight aqueous solution of calcium hypochlorite.
# Sodium thiosulfate: 5% by weight aqueous solution, supplied by Tarijian Labs, Inc., Queens Village, N.Y.
# HIV infected Cells: H9/IIIB cells (10^6 cells/ml of complete culture medium, RPI in 10% fetal calf serum [FCS]), as described above in Example 6.
# A first fresh, dry test swab or towlette is impregnated with a 4.0% by weight aqueous solution of calcium hypochlorite by applying 5 (five) ml. of the calcium hypochlorite solution to the test swab. A second fresh, dry test swab or towlette is impregnated with a 5% by weight aqueous solution of sodium thiosulfate by applying 5 (five) ml. of the sodium thiosulfate solution to the test swab.
# A small amount of the HIV infected cells are placed on a stainless steel work surface.
# The sodium thiosulfate impregnated towlette is then wiped, or swabbed, over the work surface containing the inactivated virus.
# [7] = calcium hypochlorite 40 g/l, one minute
# [8] = calcium hypochlorite 423 g/l, one minute
# [9] = no calcium hypochlorite, 37° C., 24 hours
# [10] = calcium hypochlorite 0 (control)
# [11] = lower concentration of calcium hypochlorite (40 g/l), one minute
Compound,"No. colonies of revertant organisms [1, 7] [colonies]","No. colonies of revertant organisms [1, 8] [colonies]","No. colonies of revertant organisms [1, 9] [colonies]","Concentration by fluorescence (chromophore recovery) [4, 10] [ng]",Concentration by fluorescence (chromophore recovery) ([4]; calcium hypochlorite 40 g/l) [ng],Concentration by fluorescence (chromophore recovery) ([4]; calcium hypochlorite 423 g/l) [ng],"chemical evidence of drug [4, 11]",other results
[Ca+2].[O-]Cl.[O-]Cl [calcium hypochlorite],–,–,–,–,–,–,–,"No. colonies of revertant organisms, control without drug ([1]; calcium hypochlorite 40 g/l): 0 colonies; No. colonies of revertant organisms, control without drug ([1]; calcium hypochlorite 423 g/l): 0 colonies; HIV / infected cell inactivation ([2]; 4% by weight, 1:1 volumetric ratio, 15 minutes): completely inactivates; viable HIV present ([2]; after four day incubation): no viable HIV varions present; HIV antibody binding ([2]; antibody specific to the 120 kDa viral glycoprotein): no HIV antibody binding is detectable; signs of HIV infection under fluorescent microscope ([2]; fluorescent anti-HIV antibody): no signs of HIV infection; lysis of cells ([2]; non-infected and HIV infected cells, n=4 each): completely lysed"
O=C1c2c(O)ccc(O)c2C(=O)c2c(NCCNCCO)ccc(NCCNCCO)c21 [Mitoxantrone],44,0,164,10.1,3.8,0,–,"hypochlorite concentration that may be required for substantially complete deactivation [3]: up to 40 % by weight; bacterial revertant growth ([1]; lower concentration of calcium hypochlorite (40 g/l)): associated with bacterial revertant growth; degradation ([4]; lower concentration of calcium hypochlorite (40 g/l), one minute, 1 min): approximately 60%"
COc1cccc2c1C(=O)c1c(O)c3c(c(O)c1C2=O)C[C@@](O)(C(C)=O)C[C@@H]3O[C@H]1C[C@H](N)[C@H](O)[C@H](C)O1 [Daunorubicin],0,0,365,9.8,0,0,no chemical evidence,–
O=S([O-])([O-])=S.[Na+].[Na+] [sodium thiosulfate],–,–,–,–,–,–,–,neutralization of residual sodium hypochlorite [5]: should neutralize any residual sodium hypochlorite; neutralization of residual calcium hypochlorite [6]: should neutralize any residual calcium hypochlorite
COc1cccc2c1C(=O)c1c(O)c3c(c(O)c1C2=O)C[C@@](O)(C(=O)CO)C[C@@H]3O[C@H]1C[C@H](N)[C@H](O)[C@H](C)O1 [Doxorubicin],0,0,257,9.7,0,0,no chemical evidence,–
